Here are results for 21 compounds from patent US9567302B2, “Carbamate compounds and of making and using same” (Abide Therapeutics, Inc., priority 2012, dated 2017).

Common to all, as to type: biochemical
What all share (design): from tissue

One assay concerns the target T1, ABHD6 (Mus musculus, UniProt Q8R2Y0).
T1 sequence (Q8R2Y0 1-336): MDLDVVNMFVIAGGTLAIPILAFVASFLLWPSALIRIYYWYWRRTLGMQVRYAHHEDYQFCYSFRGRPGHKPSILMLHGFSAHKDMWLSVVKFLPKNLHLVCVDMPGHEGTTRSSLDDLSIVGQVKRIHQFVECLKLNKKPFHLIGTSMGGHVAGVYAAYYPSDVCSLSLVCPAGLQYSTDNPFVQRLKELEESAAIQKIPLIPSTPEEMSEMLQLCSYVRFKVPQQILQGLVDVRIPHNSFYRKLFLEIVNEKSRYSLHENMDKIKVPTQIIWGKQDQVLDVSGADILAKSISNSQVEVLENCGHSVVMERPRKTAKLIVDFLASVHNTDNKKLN
The assay is described as follows: In vitro competitive ABPP, % inhibition at fixed concentration, ABHD6. An outline of the steps:
(§1)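 Mouse brain membrane proteome or cell lysate at 1.0 mg/ml was preincubated with inhibitor for 30 min at 37° C, then labelled with FP-Rh for another 30 min. After SDS-PAGE, activity was quantified from the fluorescent intensity of the MAGL, ABHD6 and FAAH bands.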

In a further assay the target is T2, FAAH (Mus musculus, UniProt O08914).
T2 sequence (O08914 1-579): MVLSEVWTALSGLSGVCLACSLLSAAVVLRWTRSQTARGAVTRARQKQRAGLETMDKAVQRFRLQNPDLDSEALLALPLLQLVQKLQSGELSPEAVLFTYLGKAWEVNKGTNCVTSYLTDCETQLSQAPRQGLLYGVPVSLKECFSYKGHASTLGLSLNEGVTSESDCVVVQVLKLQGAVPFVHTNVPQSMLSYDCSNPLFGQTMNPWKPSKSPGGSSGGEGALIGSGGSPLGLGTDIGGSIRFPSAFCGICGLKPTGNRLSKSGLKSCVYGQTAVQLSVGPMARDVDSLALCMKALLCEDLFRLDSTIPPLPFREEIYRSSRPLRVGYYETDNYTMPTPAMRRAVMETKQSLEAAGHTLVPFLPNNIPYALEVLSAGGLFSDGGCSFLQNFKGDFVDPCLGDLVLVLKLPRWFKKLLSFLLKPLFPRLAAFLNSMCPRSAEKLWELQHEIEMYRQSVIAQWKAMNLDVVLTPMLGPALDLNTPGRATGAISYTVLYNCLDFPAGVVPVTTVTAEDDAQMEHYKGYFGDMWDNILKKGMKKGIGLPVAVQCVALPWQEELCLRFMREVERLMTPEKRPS
The assay is described as follows: In vitro competitive ABPP, % inhibition at fixed concentration, FAAH. An outline of the steps:
as §1

For the next assay, the target named is T3, MAGL (Mus musculus, UniProt O35678).
T3 sequence (O35678 1-303): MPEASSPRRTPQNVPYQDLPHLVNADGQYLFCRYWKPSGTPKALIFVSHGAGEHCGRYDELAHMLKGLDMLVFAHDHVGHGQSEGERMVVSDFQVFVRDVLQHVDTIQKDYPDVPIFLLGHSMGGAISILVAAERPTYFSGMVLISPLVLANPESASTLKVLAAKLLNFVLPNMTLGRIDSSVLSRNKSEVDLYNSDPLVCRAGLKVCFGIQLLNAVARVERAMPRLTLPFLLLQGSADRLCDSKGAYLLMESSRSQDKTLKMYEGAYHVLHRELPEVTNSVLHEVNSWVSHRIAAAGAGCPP
The assay is described as follows: In vitro competitive ABPP, % inhibition at fixed concentration, MAGL. In outline:
as §1

In the case of `Cc1cccc(-c2ccc(CN3CCN(C(=O)ON4C(=O)CCC4=O)CC3)c(C)c2)c1` [Example 163, 2,5-Dioxopyrrolidin-1-yl 4-{[2-methyl-4-(3-methylphenyl)phenyl]methyl}piperazine-1-carboxylate], the inhibition (as a rule, the percentage by which the read-out fell short of the control) at 1 µM was 25 to 75% on ABHD6, < 25% at FAAH and 25 to 75% at MAGL.
In the case of `O=C(ON1C(=O)CCC1=O)N1CCN(Cc2ccc(-c3cccc(F)c3)cn2)CC1` [Example 168, 2,5-Dioxopyrrolidin-1-yl 4-{[5-(3-fluorophenyl)pyridin-2-yl]methyl}piperazine-1-carboxylate], the inhibition at 1 µM was 25 to 75% at ABHD6, < 25% at FAAH and 25 to 75% on MAGL.
On to `O=C(ON1C(=O)CCC1=O)N1CCN(Cc2cc(C(F)(F)F)ccc2N2CCCC2)CC1` [Example 120, 2,5-Dioxopyrrolidin-1-yl 4-{[2-(pyrrolidin-1-yl)-5-(trifluoromethyl)phenyl]methyl}piperazine-1-carboxylate], for which the inhibition at 1 µM was 25 to 75% on ABHD6, < 25% at FAAH and > 75% at MAGL.
The corresponding values for `O=C(ON1C(=O)CCC1=O)N1CCN(Cc2cc(C(F)(F)F)ccc2C(=O)N2CCOCC2)CC1` [Example 203, 2,5-Dioxopyrrolidin-1-yl 4-{[2-(morpholine-4-carbonyl)-5-(trifluoromethyl)phenyl]methyl}piperazine-1-carboxylate] are < 25%, < 25% and < 25%.
`O=C(ON1C(=O)CCC1=O)N1CCN(Cc2ccc(N3CCOCC3)cc2)CC1` [Example 100, 2,5-Dioxopyrrolidin-1-yl 4-(4-morpholinobenzyl)piperazine-1-carboxylate]: the inhibition at 1 µM at ABHD6, at FAAH and on MAGL was < 25% each time.
For the compound `CS(=O)(=O)N1CCN(C(=O)ON2C(=O)CCC2=O)CC1` [Example 126, 2,5-Dioxopyrrolidin-1-yl 4-methanesulfonylpiperazine-1-carboxylate], the results for the inhibition at 1 µM on ABHD6, on FAAH and at MAGL were < 25%, < 25% and 25 to 75%, respectively. In addition, the inhibition at 10 µM on ABHD6, at FAAH and on MAGL was < 25% each time.
With `C[C@H]1CN(Cc2ccc(N3CCOCC3)cc2C(F)(F)F)CCN1C(=O)ON1C(=O)CCC1=O` [Example 77, 2,5-Dioxopyrrolidin-1-yl (2S)-2-methyl-4-{[4-(morpholin-4-yl)-2-(trifluoromethyl)phenyl]methyl}piperazine-1-carboxylate], the inhibition at 1 µM on ABHD6 was 25 to 75%; at FAAH, < 25%; at MAGL, 25 to 75%.
As for `O=C(CN1CCCCC1)N1CCN(C(=O)ON2C(=O)CCC2=O)CC1` [Example 213, 2,5-Dioxopyrrolidin-1-yl 4-[2-(piperidin-1-yl)acetyl]piperazine-1-carboxylate], the inhibition at 10 µM at ABHD6, at FAAH and at MAGL was < 25% each time.
Take `O=C(CN1CCOCC1)N1CCN(C(=O)ON2C(=O)CCC2=O)CC1` [Example 215, 2,5-Dioxopyrrolidin-1-yl 4-[2-(morpholin-4-yl)acetyl]piperazine-1-carboxylate]: the inhibition at 10 µM on ABHD6, at FAAH and on MAGL was < 25% throughout.
In the case of `O=C(ON1C(=O)CCC1=O)N1CCN(Cc2ccc(C(=O)N3CCCC3)cc2Cl)CC1` [Example 193, 2,5-Dioxopyrrolidin-1-yl 4-{[2-chloro-4-(pyrrolidine-1-carbonyl)phenyl]methyl}piperazine-1-carboxylate], the results for the inhibition at 1 µM at ABHD6, at FAAH and on MAGL were 25 to 75%, < 25% and 25 to 75%, respectively.
For `C[C@H]1CN(Cc2ccc(N3CCOCC3)cc2Cl)CCN1C(=O)ON1C(=O)CCC1=O` [Example 89, 2,5-Dioxopyrrolidin-1-yl (2S)-4-{[2-chloro-4-(morpholin-4-yl)phenyl]methyl}-2-methylpiperazine-1-carboxylate], the results for the inhibition at 1 µM at ABHD6, on FAAH and on MAGL were 25 to 75%, < 25% and 25 to 75%, respectively.
In the case of `O=C(ON1C(=O)CCC1=O)N1CCN(Cc2ccc(N3CCCC3)cc2)CC1` [Example 99, 2,5-Dioxopyrrolidin-1-yl 4-(4-(pyrrolidin-1-yl)benzyl)piperazine-1-carboxylate], the inhibition at 1 µM on ABHD6 is 25 to 75%; on FAAH it was < 25%; on MAGL, 25 to 75%.
For `O=C(ON1C(=O)CCC1=O)N1CCN(Cc2ccc(Cl)cc2N2CCC(C(=O)N3CCCC3)CC2)CC1` [Example 116, 2,5-Dioxopyrrolidin-1-yl 4-({4-chloro-2-[4-(pyrrolidine-1-carbonyl)piperidin-1-yl]phenyl}methyl)piperazine-1-carboxylate], the figures for the inhibition at 1 µM at ABHD6, at FAAH and on MAGL were < 25%, < 25% and 25 to 75%, respectively.
For `O=C(ON1C(=O)CCC1=O)N1CCN(C(c2ccc3c(c2)COC3)c2ccc3c(c2)COC3)CC1` [Example 157, 2,5-Dioxopyrrolidin-1-yl 4-[bis(1,3-dihydro-2-benzofuran-5-yl)methyl]piperazine-1-carboxylate], the inhibition at 1 µM on ABHD6 is 25 to 75%; at FAAH, < 25%; at MAGL, 25 to 75%.
Regarding `CC(C)n1cc(CN2CCN(C(=O)ON3C(=O)CCC3=O)CC2)c(-c2ccccc2Cl)n1` [Example 142, 2,5-Dioxopyrrolidin-1-yl 4-{[3-(2-chlorophenyl)-1-(propan-2-yl)-1H-pyrazol-4-yl]methyl}piperazine-1-carboxylate], the inhibition at 1 µM at ABHD6 is 25 to 75%; on FAAH, < 25%; on MAGL, 25 to 75%.
For `CC1(C)CN(Cc2ccc(N3CCOCC3)cc2C(F)(F)F)CCN1C(=O)ON1C(=O)CCC1=O` [Example 86, 2,5-Dioxopyrrolidin-1-yl 2,2-dimethyl-4-{[4-(morpholin-4-yl)-2-(trifluoromethyl)phenyl]methyl}piperazine-1-carboxylate], the inhibition at 1 µM on ABHD6, on FAAH and on MAGL was < 25% in each case.
With `O=C(ON1C(=O)CCC1=O)N1CCN(Cc2ccc(Cl)cc2C(=O)N2CCCC2)CC1` [Example 196, 2,5-Dioxopyrrolidin-1-yl 4-{[4-chloro-2-(pyrrolidine-1-carbonyl)phenyl]methyl}piperazine-1-carboxylate], the inhibition at 1 µM was < 25% at ABHD6, < 25% at FAAH and 25 to 75% on MAGL.
`O=C(ON1C(=O)CCC1=O)N1CCN(Cc2cnc3ccccn23)CC1` [Example 147, 2,5-Dioxopyrrolidin-1-yl 4-(imidazo[1,2-a]pyridin-3-ylmethyl)piperazine-1-carboxylate]: the inhibition at 1 µM at ABHD6, on FAAH and on MAGL was < 25% throughout.
Turning to `O=C(ON1C(=O)CCC1=O)N1CCN(C(=O)c2ccccc2)CC1` [Example 212, 2,5-Dioxopyrrolidin-1-yl 4-benzoylpiperazine-1-carboxylate], the inhibition at 10 µM at ABHD6 was < 25%; at FAAH, < 25%; on MAGL it was 25 to 75%.
With `Cc1cc(CN2CCN(C(=O)ON3C(=O)CCC3=O)CC2)n(C(C)C)n1` [Example 146, 2,5-Dioxopyrrolidin-1-yl 4-{[3-methyl-1-(propan-2-yl)-1H-pyrazol-5-yl]methyl}piperazine-1-carboxylate], the inhibition at 1 µM at ABHD6 was 25 to 75%; on FAAH, < 25%; at MAGL, 25 to 75%.
Consider `CC1(C)CN(Cc2ccc(N3CCOCC3)cc2OC(F)(F)F)CCN1C(=O)ON1C(=O)CCC1=O` [Example 87, 2,5-Dioxopyrrolidin-1-yl 2,2-dimethyl-4-{[4-(morpholin-4-yl)-2-(trifluoromethoxy)phenyl]methyl}piperazine-1-carboxylate], for which the inhibition at 1 µM at ABHD6, on FAAH and at MAGL was < 25% in each case.
